Results from ChEMBL document CHEMBL4184196, “Design, synthesis, and evaluation of polyamine-memantine hybrids as NMDA channel blockers” (Bioorg Med Chem, 2018).
Where a name gives a salt, the structure may show the parent alone. Calls of active or inactive are those of the source. The rule behind the calls is not given here.

Tests used:
Type in all cases: cell-based
[1] = biological target: Glutamate NMDA receptor; Grin1/Grin2a (Rattus norvegicus) (UniProt P35439+Q00959); assay: Antagonist activity at rat brain GluN1/GluN2A receptor expressed in Xenopus laevis oocytes assessed as inhibition of glutamate/glycine-induced channel current at 1 uM by two electrode voltage clamp method
[2] = biological target: Glutamate NMDA receptor; Grin1/Grin2b (Rattus norvegicus) (UniProt P35439+Q00960); assay: Antagonist activity at rat brain GluN1/GluN2B receptor expressed in Xenopus laevis oocytes assessed as inhibition of glutamate/glycine-induced channel current at 1 uM by two electrode voltage clamp method
[3] = biological target: Glutamate NMDA receptor; Grin1/Grin2b (Rattus norvegicus, UniProt P35439+Q00960); assay: Antagonist activity at rat brain GluN1/GluN2B receptor expressed in Xenopus laevis oocytes assessed as inhibition of glutamate/glycine-induced channel current by two electrode voltage clamp method
[4] = biological target: Glutamate NMDA receptor; Grin1/Grin2a (Rattus norvegicus, UniProt P35439+Q00959); assay: Antagonist activity at rat brain GluN1/GluN2A receptor expressed in Xenopus laevis oocytes assessed as inhibition of glutamate/glycine-induced channel current by two electrode voltage clamp method

inhibition [1]	inhibition [2]	IC50 [3]	IC50 [4]	SMILES
Active	Active	–	–	CC12CC3CC(C)(C1)CC(NCCCCN)(C3)C2
Active	Active	–	–	CC12CC3CC(C)(C1)CC(NCCCCN=C(N)N)(C3)C2
Active	Active	–	–	CC12CC3CC(C)(C1)CC(NCCCCCCCCCN)(C3)C2

Continued, compound first:

SMILES	inhibition [1]	inhibition [2]	IC50 [3]	IC50 [4]
CC12CC3CC(C)(C1)CC(NCCCCNCc1ccccc1)(C3)C2	Active	Active	–	–
CC12CC3CC(C)(C1)CC(NCCCCNCCCCNC(=N)N)(C3)C2	–	–	433 nM	379 nM
CC12CC3CC(C)(C1)CC(N)(C3)C2 [MEMANTINE HYDROCHLORIDE]	–	–	–	1380 nM
CC12CC3CC(C)(C1)CC(NCCCCNCCCCN)(C3)C2	–	–	587 nM	656 nM
